# From patent US12145914B2, “Compound having oxadiazole and pharmaceutical composition containing the same” (SK BIOPHARMACEUTICALS CO., LTD., priority 2018, dated 2024)
# Tested on: focal onset seizures induced by electrostimulation of 44 mA, 6 Hz, 3 sec in ICR mouse
# Assay: 6 Hz method for screening anticonvulsants (6 Hz, 44 mA electrostimulation)
# Assay type: in vivo
# Conditions: male ICR mice, intraperitoneal (ip), electrostimulation 44 mA, 3 sec to the eye, number of non-seizure animals/number of animals used
# Description: The utility of the compounds according to the present invention as an anticonvulsant agent has been investigated by the 6 Hz method, which has been well established as pharmacological screening methods of convulsant agents for focal onset seizures. The procedure of the 6 Hz method for screening anticonvulsant was as follows:
# 1) Preparation of Experimental Animals
# Male ICR mice are purchased from Orient Bio, Inc. of Korea, and are stored and managed according to laboratory animal management standards of the Institutional Animal Care and Use Committee (IACUC) by putting the same in a wire net cage under an environment in which an ambient temperature of 19 to 25° C., 40 to 60% relative humidity and 12 hour periods of light/dark were auto-controlled, and water was freely taken. After stabilization for a week, mice with a body weight of 18 to 23 g were used in the experiment.
# 2) Evaluation of the Anticonvulsant Effect of a Compound
# 5% Tetracaine (Sigma) was added to both eyes to provide a local anesthetic effect at 5 to 10 minutes before the period of electrical stimulation at the animal ICR mouse. The compounds to be tested were dissolved in distilled water in which 30% polyethylene glycol 300+5% dimethylsulfoxide+5% Cremophor was dissolved and administered intraperitoneally (ip) to the animal at a dosage volume of 10 mL/kg. Then, electrostimulation of 44 mA, 6 Hz, and 3 sec was applied to the eye to induce focus-generating seizures. After the electrical stimulation, the presence of seizures due to drug effects was confirmed, and the ratio of animals showing no seizures was expressed as a protection rate (the number of non-seizure animals/the number of animals used in experiments=protection rate). […]
row,Compound,"6 Hz, 44 mA protection rate"
1,"Cc1nnc(CC(OC(N)=O)c2cc(-c3ccc(C(F)(F)F)cc3)ccc2Cl)o1 (centres unmarked) [Example 50, [1-[2-chloro-5-[4-(trifluoromethyl)phenyl]phenyl]-2-(5-methyl-1,3,4-oxadiazol-2-yl)ethyl] carbamate]",++ (0.6 to 0.8 are scored as ‘++’)
2,"NC(=O)OC(Cc1nnco1)c1cc(-c2ccc(C(F)(F)F)cc2)ccc1Cl (centres unmarked) [Example 51, [1-[2-chloro-5-[4-(trifluoromethyl)phenyl]phenyl]-2-(1,3,4-oxadiazol-2-yl)ethyl]carbamate]",+ (0.2 to 0.6 are scored as ‘+’)
3,"CC(=O)OC(Cc1nnc(C)o1)c1cccc(-c2ccc(C(F)(F)F)cc2)c1 (centres unmarked) [Example 55, [2-(5-methyl-1,3,4-oxadiazol-2-yl)-1-[3-[4-(trifluoromethyl)phenyl]phenyl]ethyl]acetate]",+ (0.2 to 0.6 are scored as ‘+’)
4,"Cc1nnc(CC(O)c2cc(-c3ccc(C(F)(F)F)cc3)ccc2C)o1 (centres unmarked) [Example 42, 2-(5-methyl-1,3,4-oxadiazol-2-yl)-1-[2-methyl-5-[4-(trifluoromethyl)phenyl]phenyl]ethanol]",++ (0.6 to 0.8 are scored as ‘++’)
5,"Cc1nnc(CC(O)c2cc(CCC(F)(F)F)ccc2F)o1 (centres unmarked) [Example 10, 1-[2-fluoro-5-(3,3,3-trifluoropropyl)phenyl]-2-(5-methyl-1,3,4-oxadiazol-2-yl)ethanol]",+ (0.2 to 0.6 are scored as ‘+’)
6,"Cc1nnc(CC(OC(N)=O)c2cc(-c3ccc(Cl)cc3)ccc2F)o1 (centres unmarked) [Example 4, [1-[5-(4-chlorophenyl)-2-fluoro-phenyl]-2-(5-methyl-1,3,4-oxadiazol-2-yl)ethyl] carbamate]",++ (0.6 to 0.8 are scored as ‘++’)
7,"Cc1nnc(CC(O)c2cc(-c3ccc(C(F)(F)F)cc3)ccc2Cl)o1 (centres unmarked) [Example 48, 1-[2-chloro-5-[4-(trifluoromethyl)phenyl]phenyl]-2-(5-methyl-1,3,4-oxadiazol-2-yl)ethanol]",++ (0.6 to 0.8 are scored as ‘++’)
8,"Cc1nnc(CC(O)c2cc(OCC(F)(F)F)ccc2F)o1 (centres unmarked) [Example 17, 1-[2-fluoro-5-(2,2,2-trifluoroethoxy)phenyl]-2-(5-methyl-1,3,4-oxadiazol-2-yl)ethanol]",+ (0.2 to 0.6 are scored as ‘+’)
9,"CCCCCc1ccc(F)c(C(Cc2nnc(C)o2)OC(N)=O)c1 (centres unmarked) [Example 28, [1-(2-fluoro-5-pentyl-phenyl)-2-(5-methyl-1,3,4-oxadiazol-2-yl)ethyl] carbamate]",++ (0.6 to 0.8 are scored as ‘++’)
10,"Cc1nnc(CC(O)c2cc(-c3ccc(Cl)cc3)ccc2F)o1 (centres unmarked) [Example 1, 1-[5-(4-chlorophenyl)-2-fluoro-phenyl]-2-(5-methyl-1,3,4-oxadiazol-2-yl)ethanol]",++ (0.6 to 0.8 are scored as ‘++’)
11,"CCCCOc1ccc(F)c(C(Cc2nnc(C)o2)OC(N)=O)c1 (centres unmarked) [Example 22, [1-(5-butoxy-2-fluoro-phenyl)-2-(5-methyl-1,3,4-oxadiazol-2-yl)ethyl] carbamate]",+ (0.2 to 0.6 are scored as ‘+’)
12,"OC(Cc1nnco1)c1cc(-c2ccc(C(F)(F)F)cc2)ccc1F (centres unmarked) [Example 5, 1-[2-fluoro-5-[4-(trifluoromethyl)phenyl]phenyl]-2-(1,3,4-oxadiazol-2-yl)ethanol]",+ (0.2 to 0.6 are scored as ‘+’)
13,"Cc1nnc(CC(O)c2cc(C(=O)NCCC(F)(F)F)ccc2F)o1 (centres unmarked) [Example 37, 4-fluoro-3-[1-hydroxy-2-(5-methyl-1,3,4-oxadiazol-2-yl)ethyl]-N-(3,3,3-trifluoropropyl)benzamide]",+ (0.2 to 0.6 are scored as ‘+’)
14,"Cc1nnc(CC(OC(N)=O)c2cccc(-c3ccc(F)cc3)c2)o1 (centres unmarked) [Example 72, [1-[3-(4-fluorophenyl)phenyl]-2-(5-methyl-1,3,4-oxadiazol-2-yl)ethyl] carbamate]",+ (0.2 to 0.6 are scored as ‘+’)
15,"Cc1nnc(CC(O)c2cc(CCCCC(F)(F)F)ccc2F)o1 (centres unmarked) [Example 32, 1-[2-fluoro-5-(5,5,5-trifluoropentyl)-phenyl]-2-(5-methyl-1,3,4-oxadiazol-2-yl)ethanol]",+ (0.2 to 0.6 are scored as ‘+’)
16,"Cc1nnc(CC(O)c2cc(-c3ccc(C(F)(F)F)cc3)ccc2F)o1 (centres unmarked) [Example 2, 1-[2-fluoro-5-[4-(trifluoromethyl)phenyl]phenyl]-2-(5-methyl-1,3,4-oxadiazol-2-yl)ethanol]",++ (0.6 to 0.8 are scored as ‘++’)

row,Compound,"6 Hz, 44 mA protection rate"
1,"Cc1nnc(CC(OC(N)=O)c2cccc(-c3ccc(Cl)cc3)c2)o1 (centres unmarked) [Example 75, [1-[3-(4-chlorophenyl)phenyl]-2-(5-methyl-1,3,4-oxadiazole-2-yl)ethyl] carbamate]",+ (0.2 to 0.6 are scored as ‘+’)
2,"Cc1nnc(CC(O)c2cccc(-c3ccc(Cl)cc3)c2)o1 (centres unmarked) [Example 65, 1-[3-(4-chlorophenyl)phenyl]-2-(5-methyl-1,3,4-oxadiazol-2-yl)ethanol]",++ (0.6 to 0.8 are scored as ‘++’)
3,"OC(Cc1nnco1)c1cccc(-c2ccc(C(F)(F)F)cc2)c1 (centres unmarked) [Example 52, 2-(1,3,4-oxadiazol-2-yl)-1-[3-[4-(trifluoromethyl)phenyl]phenyl]ethanol]",+ (0.2 to 0.6 are scored as ‘+’)
4,"Cc1nnc(CC(OC(N)=O)c2cccc(-c3ccc(OC(F)(F)F)cc3)c2)o1 (centres unmarked) [Example 78, [1-[3-[4-(trifluoromethoxy)phenyl]phenyl]-2-(5-methyl-1,3,4-oxadiazol-2-yl)ethyl] carbamate]",++ (0.6 to 0.8 are scored as ‘++’)
5,"CC1(C)O[C@@H]2[C@@H](CO[C@@]3(COS(N)(=O)=O)OC(C)(C)O[C@@H]23)O1 [Topiramate, reference compound]",− (the protection rates 0 to 0.2 are scored as ‘−’)
6,"COc1ccc(-c2ccc(C(F)(F)F)cc2)cc1C(O)Cc1nnc(C)o1 (centres unmarked) [Example 43, 1-[2-methoxy-5-[4-(trifluoromethyl)phenyl]phenyl]-2-(5-methyl-1,3,4-oxadiazol-2-yl)ethanol]",+ (0.2 to 0.6 are scored as ‘+’)
7,"Cc1nnc(CC(O)c2cccc(-c3ccc(OC(F)(F)F)cc3)c2)o1 (centres unmarked) [Example 59, 2-(5-methyl-1,3,4-oxadiazol-2-yl)-1-[3-[4-(trifluoromethoxy)phenyl]phenyl]ethanol]",++ (0.6 to 0.8 are scored as ‘++’)
8,"Cc1nnc(CC(OC(N)=O)c2cccc(-c3ccc(C(F)(F)F)cc3)c2)o1 (centres unmarked) [Example 7, [2-(5-methyl-1,3,4-oxadiazol-2-yl)-1-[3-[4-(trifluoromethyl)phenyl]phenyl]ethyl]carbamate]",++ (0.6 to 0.8 are scored as ‘++’)
9,"Nc1nnc(-c2cccc(Cl)c2Cl)c(N)n1 [Lamotrigine, reference compound]",− (the protection rates 0 to 0.2 are scored as ‘−’)
10,"Cc1nnc(CC(OC(N)=O)c2cc(CCCC(F)(F)F)ccc2F)o1 (centres unmarked) [Example 33, [1-[2-fluoro-5-(4,4,4-trifluorobutyl)phenyl]-2-(5-methyl-1,3,4-oxadiazol-2-yl)ethyl] carbamate]",+ (0.2 to 0.6 are scored as ‘+’)
11,"Cc1nnc(CC(OC(N)=O)c2cc(CCCCC(F)(F)F)ccc2F)o1 (centres unmarked) [Example 34, [1-[2-fluoro-5-(5,5,5-trifluoropentyl)phenyl]-2-(5-methyl-1,3,4-oxadiazol-2-yl)ethyl] carbamate]",++ (0.6 to 0.8 are scored as ‘++’)
12,"NC(=O)OC(Cc1nnco1)c1cc(OCCCC(F)(F)F)ccc1F (centres unmarked) [Example 24, [1-[2-fluoro-5-(4,4,4-trifluorobutoxy)phenyl]-2-(1,3,4-oxadiazol-2-yl)ethyl] carbamate]",++ (0.6 to 0.8 are scored as ‘++’)
13,"Cc1nnc(CC(O)c2cccc(OCCCC(F)(F)F)c2)o1 (centres unmarked) [Example 19, 2-(5-methyl-1,3,4-oxadiazol-2-yl)-1-[3-(4,4,4-trifluorobutoxy)phenyl]ethanol]",+ (0.2 to 0.6 are scored as ‘+’)
14,"CCc1nnc(CC(O)c2cccc(-c3ccc(C(F)(F)F)cc3)c2)o1 (centres unmarked) [Example 53, 2-(5-ethyl-1,3,4-oxadiazol-2-yl)-1-[3-[4-(trifluoromethyl)phenyl]phenyl]ethanol]",+ (0.2 to 0.6 are scored as ‘+’)
15,"COC(Cc1nnc(C)o1)c1cccc(-c2ccc(C(F)(F)F)cc2)c1 (centres unmarked) [Example 56, 2-[2-methoxy-2-[3-[4-(trifluoromethyl)phenyl]phenyl]ethyl]-5-methyl-1,3,4-oxadiazole]",++ (0.6 to 0.8 are scored as ‘++’)
16,"Cc1nnc(CC(OC(N)=O)c2cccc(OCCCC(F)(F)F)c2)o1 (centres unmarked) [Example 20, [2-(5-methyl-1,3,4-oxadiazol-2-yl)-1-[3-(4,4,4-trifluorobutoxy)phenyl]ethyl] carbamate]",+ (0.2 to 0.6 are scored as ‘+’)
